Measured values published in ChEMBL document CHEMBL3886153, “HIV protease inhibitors” (2015).

Molecular target: Gag-Pol polyprotein (Human immunodeficiency virus type 1 group M subtype B (isolate HXB2)(HIV-1), UniProt P04585)
Assay: Inhibition Assay: The inhibition of WT HIV-1 protease was studied using the reaction of the protease (expressed in Eschericia coli) with a peptide substrate [Val-Ser-Gln-Asn-(betanaphthyl)Ala-Pro-Ile-Val (SEQ ID NO:1)]. Compounds were tested using Procedure A. In Procedure A, the test compound was first preincubated with the enzyme in assay buffer (50 mM sodium acetate, pH 5.5, 100 mM NaCl, and 0.1% BSA) for 30 minutes at room temperature. Substrate was then added to 400 micromolar in a total volume of 80 microliters containing 10 picomolar HIV-1 protease and the reaction was incubated for 1 hour at 30° C. The reaction was quenched with the addition of 120 microliters of 10% phosphoric acid. The product formation was determined after separation of product and substrate on a Zorbax Eclipse XDB-C18 column (Agilent Technologies, Santa Clara, Calif.) connected to an Agilent 1100 high performance liquid chromatography system with fluorescence detection (excitation 270 nanometer and emission 330 nanometer).

SMILES | IC50 [nM]
COC(=O)N[C@H](C(=O)N[C@H](c1ccc(C(CO)N(CCC(C)(C)C)S(=O)(=O)c2ccc(OC)nc2)s1)C(F)(F)F)C(c1ccccc1)c1ccccc1 (stereo partly specified) | 27.5
COC(=O)N[C@H](C(=O)NCc1ccc([C@@H](CO)N(CC2CC(F)(F)C2)S(=O)(=O)c2ccc(C(C)O)cc2)s1)C(c1ccccc1)c1ccccc1 (stereo partly specified) | 8.97
COC(=O)N[C@H](C(=O)NCc1ccc([C@@H](CO)N(CC2CC(F)(F)C2)S(=O)(=O)c2ccc(C(C)=O)cc2)s1)C(c1ccccc1)c1ccccc1 | 11.9
COC(=O)N[C@H](C(=O)N[C@H](c1ccc([C@@H](CO)N(CCC(C)(C)C)S(=O)(=O)c2ccc(=O)[nH]c2)s1)C(F)(F)F)C(c1ccccc1)c1ccccc1 | 9.42
COC(=O)N[C@H](C(=O)N[C@H](c1ccc([C@@H](CO)N(C(C)C)S(=O)(=O)c2ccc(N)cc2)s1)C(F)(F)F)[C@@H](c1ccccc1)c1c[nH]c2ncccc12 | 3.96
COC(=O)N[C@H](C(=O)N[C@H](c1ccc([C@@H](CO)N(C(C)C)S(=O)(=O)c2ccc(N)c(Cl)c2)s1)C(F)(F)F)C(c1ccccc1)c1ccccc1 | 92.5
COC(=O)N[C@H](C(=O)N[C@H](c1ccc([C@@H](CO)N(C(C)C)S(=O)(=O)c2cc(N)cs2)s1)C(F)(F)F)C(c1ccccc1)c1ccccc1 | 21.7
COC(=O)N[C@H](C(=O)N[C@H](c1ccc([C@@H](CO)N(CCC(C)(C)C)S(=O)(=O)c2cn3ncnc3cn2)s1)C(F)(F)F)C(c1ccccc1)c1ccccc1 | 3.59
COC(=O)N[C@H](C(=O)N[C@H](c1ccc([C@@H](CO)N(C(C)C)S(=O)(=O)c2ccc(Cl)s2)s1)C(F)(F)F)C(c1ccccc1)c1ccccc1 | 184
COC(=O)N[C@H](C(=O)N[C@H](c1ccc([C@@H](CO)N(CCC(C)(C)C)S(=O)(=O)C2=CC3NC=C(Cl)C3C=C2)s1)C(F)(F)F)C(c1ccccc1)c1ccccc1 (stereo partly specified) | 43.8
COC(=O)N[C@H](C(=O)NCc1ccc([C@@H](CO)N(CC2CC(F)(F)C2)S(=O)(=O)c2ccc(C(O)C(F)(F)F)cc2)s1)C(c1ccccc1)c1ccccc1 (stereo partly specified) | 26.9
